# Tested on: HCV genotype-1a variant with glutamine 30 changed to glutamate in the NS5A protein
# Test: not given
# Assay type: cell-based
# Conditions: not given
# Outline: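 Synergy was assessed by combining several fixed amounts of an NS5A-targeting compound with a titration of the second compound of interest.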
row,SMILES,Fold-Synergistic 1a (Q30E) [fold]
1,COc1cc2ccccc2c(C(=O)N2CCC[C@H]2c2ncc(-c3ccc(-c4ccc(-c5cnc([C@@H](NC(=O)C(C)(C)C)C(C)C)[nH]5)cc4)cc3)[nH]2)n1 [Compound Y-13],>100

# Same assay, conditions: test compound titrated with BMS-790052 fixed at 200 nM; genotype 1a Q30E replicon
row,SMILES,Fold-Synergistic 1a (Q30E) [fold]
1,CC(C)[C@H](NC(=O)OC1CCCC1)c1ncc(-c2ccc(-c3ccc(-c4cnc([C@@H](NC(=O)OC5CCCC5)C(C)C)[nH]4)cc3)cc2)[nH]1 [Compound S-213],>100
2,CC(C)N(CC(F)(F)F)C(=O)C(=O)N[C@H](c1nc(-c2ccc(-c3ccc(-c4c[nH]c([C@@H](NC(=O)C(=O)N(CC(F)(F)F)C(C)C)C(C)(C)C)n4)cc3)cc2)c[nH]1)C(C)(C)C [Compound W-66],>100
3,"CC(COCc1ccccc1)(OCCF)C(=O)N[C@H](c1nc(-c2ccc(-c3ccc(-c4c[nH]c([C@@H](NC(=O)C(C)(COCc5ccccc5)OCCF)C(C)(C)C)n4)cc3)cc2)c[nH]1)C(C)(C)C (single isomer, unassigned) [Compound W-261b]",>100
4,Cn1cccc1C(O)C(C)(C)C(=O)N[C@H](c1nc(-c2ccc(-c3ccc(-c4c[nH]c([C@@H](NC(=O)C(C)(C)C(O)c5cccn5C)C(C)(C)C)n4)cc3)cc2)c[nH]1)C(C)(C)C (mixture of isomers) [Compound N-129],>100
5,CCCCC(=O)N[C@H](c1ncc(-c2ccc(-c3ccc(-c4cnc([C@@H](NC(=O)CCCC)C(C)C)[nH]4)cc3)cc2)[nH]1)C(C)C [Compound S-45],>100
6,CC(C)(C)[C@H](NC(=O)C(C)(C)C1(O)CCCCC1)c1nc(-c2ccc(-c3ccc(-c4c[nH]c([C@@H](NC(=O)C(C)(C)C5(O)CCCCC5)C(C)(C)C)n4)cc3)cc2)c[nH]1 [Compound P-160],>100
7,CC(C)[C@H](NC(=O)Cc1ccccc1F)c1ncc(-c2ccc(-c3ccc(-c4cnc([C@@H](NC(=O)Cc5ccccc5F)C(C)C)[nH]4)cc3)cc2)[nH]1 [Compound S-37],>100
8,CC(C)(C)OC(=O)NC1(C(=O)N[C@H](c2nc(-c3ccc(-c4ccc(-c5c[nH]c([C@@H](NC(=O)C6(NC(=O)OC(C)(C)C)CCC(=O)CC6)C(C)(C)C)n5)cc4)cc3)c[nH]2)C(C)(C)C)CCC(=O)CC1 [Compound W-233],>100
9,CC(C)CC(=O)NC1(c2ncc(-c3ccc(-c4ccc(-c5cnc(C6(NC(=O)CC(C)C)CCC6)[nH]5)cc4)cc3)[nH]2)CCC1.O=C(O)C(F)(F)F.O=C(O)C(F)(F)F [Compound N-11],<10
10,COc1ccccc1C(=O)N[C@H](c1ncc(-c2ccc(-c3ccc(-c4cnc([C@@H](NC(=O)c5ccccc5OC)C(C)C)[nH]4)cc3)cc2)[nH]1)C(C)C [Compound S-68],>100
11,CC(C)(C)C(NC(=O)C1COC(=O)N1)c1nc(-c2ccc(-c3ccc(-c4c[nH]c(C(NC(=O)C5COC(=O)N5)C(C)(C)C)n4)cc3)cc2)c[nH]1.O=C(O)C(F)(F)F.O=C(O)C(F)(F)F [Compound L-9],>10
12,"CC(C)(C(=O)N[C@H](c1nc(-c2ccc(-c3ccc(-c4c[nH]c([C@@H](NC(=O)C(C)(C)C(O)c5ccccn5)C(C)(C)C)n4)cc3)cc2)c[nH]1)C(C)(C)C)C(O)c1ccccn1 (single isomer, unassigned) [Compound N-128A]",>100
13,CC(C)(C)[C@H](NC(=O)C(=O)N(CCC#N)C1CC1)c1nc(-c2ccc(-c3ccc(-c4c[nH]c([C@@H](NC(=O)C(=O)N(CCC#N)C5CC5)C(C)(C)C)n4)cc3)cc2)c[nH]1 [Compound W-48],>100
14,CC(C)[C@H](NC(=O)C(C)(C)C)c1ncc(-c2ccc(-c3ccc(-c4cnc([C@@H](NC(=O)C(C)(C)C)C(C)C)[nH]4)c(OC(F)F)c3)cc2)[nH]1 [Compound Y-11],>100
15,COC1(C(=O)C(=O)N[C@H](c2ncc(-c3ccc(-c4ccc(-c5cnc([C@@H](NC(=O)C(=O)C6(OC)CC6)C(C)C)[nH]5)cc4)cc3)[nH]2)C(C)C)CC1 [Compound P-123],>100
16,CC(C)[C@H](NC(=O)[C@H]1Cc2ccccc21)c1ncc(-c2ccc(-c3ccc(-c4cnc([C@@H](NC(=O)[C@H]5Cc6ccccc65)C(C)C)[nH]4)cc3)cc2)[nH]1 [Compound P-109],>100
17,CC1(C)CCN(C(=O)C(=O)N2CCC(F)(F)CC2)C1c1nc(-c2ccc(-c3ccc(-c4c[nH]c(C5N(C(=O)C(=O)N6CCC(F)(F)CC6)CCC5(C)C)n4)cc3)cc2)c[nH]1 (stereo not shown) [Compound W-222],>100

row,SMILES,Fold-Synergistic 1a (Q30E) [fold]
1,Cc1cc(-c2ccc(-c3c[nH]c([C@@H](NC(=O)c4c(F)cccc4Cl)C(C)C)n3)cc2)ccc1-c1c[nH]c([C@@H](NC(=O)c2c(F)cccc2Cl)C(C)C)n1.O=C(O)C(F)(F)F [Compound N-81],>100
2,CC(C)(C)C(NC(=O)C1C2COCC21)c1nc(-c2ccc(-c3ccc(-c4c[nH]c(C(NC(=O)C5C6COCC65)C(C)(C)C)n4)cc3)cc2)c[nH]1 [Compound L-67],>100
3,C[C@H](C(=O)N[C@H](c1nc(-c2ccc(-c3ccc(-c4c[nH]c([C@@H](NC(=O)[C@@H](C)c5ccccc5)C(C)(C)C)n4)cc3)cc2)c[nH]1)C(C)(C)C)c1ccccc1 [Compound N-60],>100
4,CC1([C@H](NC(=O)C(C)(C)C(C)(C)O)c2nc3ccc(C#Cc4ccc5nc([C@@H](NC(=O)C(C)(C)C(C)(C)O)C6(C)CC6)[nH]c5c4)cc3[nH]2)CC1 [Compound B68],>100
5,CC(C)OC(C)(C)C(=O)N[C@H](c1nc(-c2ccc(-c3ccc(-c4c[nH]c([C@@H](NC(=O)C(C)(C)OC(C)C)C(C)(C)C)n4)cc3)cc2)c[nH]1)C(C)(C)C [Compound Y-1],>100
6,CC(C)CC(=O)N1CCC[C@H]1c1ncc(-c2ccc(-c3ccc(-c4cnc([C@@H](NC(=O)C(C)(C)C)C(C)C)[nH]4)cc3)cc2)[nH]1 [Compound Y-14],>100
7,"CC(C)[C@H](NC(=O)C12CCC(C1)C(C)(C)C2O)c1nc(-c2ccc(-c3ccc(-c4c[nH]c([C@@H](NC(=O)C56CCC(C5)C(C)(C)C6O)C(C)C)n4)cc3)cc2)c[nH]1 (single isomer, unassigned) [Compound Y-114]",>100
8,CC(C)[C@H](NC(=O)C(C)(C)NC(=O)OC(C)(C)C)c1ncc(-c2ccc(-c3ccc(-c4cnc([C@@H](NC(=O)C(C)(C)NC(=O)OC(C)(C)C)C(C)C)[nH]4)cc3)cc2)[nH]1 [Compound Y-26],>100
9,CC(C)[C@H](NC(=O)C(C)(C)CF)c1ncc(-c2ccc(-c3ccc(-c4cnc([C@@H](NC(=O)C(C)(C)CF)C(C)C)[nH]4)cc3)cc2)[nH]1 [Compound P-72],>100
10,COC(C)(C)C(=O)N[C@H](c1nc(-c2ccc(-c3ccc(-c4c[nH]c([C@@H](NC(=O)C(C)(C)OC)C(C)C)n4)cc3F)cc2)c[nH]1)C(C)C.O=C(O)C(F)(F)F [Compound N-96],>100
11,"CC(CO)(OCCF)C(=O)N[C@H](c1nc(-c2ccc(-c3ccc(-c4c[nH]c([C@@H](NC(=O)C(C)(CO)OCCF)C(C)(C)C)n4)cc3)cc2)c[nH]1)C(C)(C)C (single isomer, unassigned) [Compound W-270]",>100
12,CC(C)(C)OC(=O)N1CCC(C)(C)[C@@H]1C(=O)N[C@H](c1nc(-c2ccc(-c3ccc(-c4c[nH]c([C@@H](NC(=O)[C@@H]5N(C(=O)OC(C)(C)C)CCC5(C)C)C(C)(C)C)n4)cc3)cc2)c[nH]1)C(C)(C)C [Compound W-211],>100
13,Cc1cc(-c2ccc(-c3c[nH]c([C@@H](NC(=O)C4(C)CCCCC4)C(C)C)n3)cc2)ccc1-c1c[nH]c([C@@H](NC(=O)C2(C)CCCCC2)C(C)C)n1.O=C(O)C(F)(F)F [Compound N-79],>100
14,CC(=O)N[C@H](c1ncc(-c2ccc(-c3ccc(-c4cnc([C@@H](NC(C)=O)C(C)C)[nH]4)cc3)cc2)[nH]1)C(C)C [Compound S-49],>10
15,CC(C)(C(=O)N[C@H](c1nc(-c2ccc(-c3ccc(-c4cnc([C@@H](NC(=O)C(C)(C)C5CCOC5)C(C)(C)C)[nH]4)cc3)cc2)c[nH]1)C(C)(C)C)C1CCOC1 (stereo partly shown) [Compound B-168],>100
16,CC(C)(C)OC(=O)NC1(C(=O)N[C@H](c2nc(-c3ccc(-c4ccc(-c5c[nH]c([C@@H](NC(=O)C6(NC(=O)OC(C)(C)C)CCCCC6)C(C)(C)C)n5)cc4)cc3)c[nH]2)C(C)(C)C)CCCCC1.O=C(O)C(F)(F)F.O=C(O)C(F)(F)F [Compound L-7],>100
17,CC(C)CC(=O)NC1(c2ncc(-c3ccc(-c4ccc(-c5cnc(C6(NC(=O)CC(C)C)CC=CC6)[nH]5)cc4)cc3)[nH]2)CC=CC1.O=C(O)C(F)(F)F.O=C(O)C(F)(F)F [Compound N-16],<10

# Tested on: HCV genotype 1a Y93H variant with tyrosine 93 changed to histidine in the NS5A protein
# Test: microbe, parasite or virus in culture
# Assay type: cell-based
# Conditions: genotype 1a Y93H replicon; test compound titrated with compound N47 fixed at 200 nM versus singly
# Protocol: Combinations can be examined for synergistic activity using a variety of putative NS5A-targeting compounds and a variety of test compounds. […] The test compound can be chosen from compounds exemplified below, which were prepared by methods known in the art, or from others disclosed in the literature.
# Similarly, BMS-790052 can be tested singly and in combination with a fixed amount of compound N47 in the HCV replicon cell based assay consisting of the genotype 1a Y93H variant with tyrosine 93 changed to histidine in the NS5A protein.
row,SMILES,Fold-Synergistic G-1a (Y93H) [fold]
1,COC(=O)N[C@H](C(=O)N1CCC[C@H]1c1ncc(-c2ccc([C@H]3CC[C@H](c4ccc(-c5cnc([C@@H]6CCCN6C(=O)[C@@H](NC(=O)OC)C(C)C)[nH]5)cc4)N3c3ccc(F)cc3)cc2)[nH]1)C(C)C,>10
2,COC(=O)N[C@H](C(=O)N1CCC[C@H]1c1ncc(-c2ccc([C@H]3CC[C@@H](c4ccc(-c5cnc([C@@H]6CCCN6C(=O)[C@@H](NC(=O)OC)C(C)C)[nH]5)cc4)N3c3ccc(F)cc3)cc2)[nH]1)C(C)C,>10

# Reference: patent publication US20160158200A1, “Combinations of Hepatitis C Virus Inhibitors” (priority 2013, published 2016)
